In US10681908B2, “Molecules having pesticidal utility, and intermediates, compositions, and processes, related thereto” (Dow AgroSciences LLC, priority 2016, dated 2020):

How the values were obtained:
Assay type in all cases: in vivo
[1] = test system: Beet Armyworm (Spodoptera exigua, LAPHEG); assay: Bioassay on Beet Armyworm (BAW), 128-well diet tray assay; conditions: 168 h, 50 μg/cm^2 on artificial diet, second instar larvae, five to seven days, 25° C., read-out: BAW % Control (or Mortality) rating
Outline: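 Artificial diet was surface-treated with 50 μg/cm^2 of compound in 90:10 acetone-water and dried; one to five second-instar larvae were placed per well, eight wells per treatment. Held at 25 °C, 14:10 light-dark, for five to seven days, then percent mortality per well was averaged.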

[2] = test system: Yellow Fever Mosquito (Aedes aegypti, AEDSAE); conditions: about 1 day-old larvae, 3 days, room temperature, scored on mortality
Protocol: Example C: Bioassays on Yellow Fever Mosqurro (Aedes aegypti, AEDSAE) (“YFM”)
Certain molecules disclosed in this document were tested against YFM using procedures described in the following paragraph. In the reporting of the results, the “GPA & YFM Rating Table” was used (See Table Section).
Master plates containing 400 μg of a molecule dissolved in 100 μL of dimethyl sulfoxide (DMSO) (equivalent to a 4000 ppm solution) are used. A master plate of assembled molecules contains 15 μL per well. To this plate, 135 μL of a 90:10 water:acetone mixture is added to each well. A robot (Biomek® NXP Laboratory Automation Workstation) is programmed to dispense 15 μL aspirations from the master plate into an empty 96-well shallow plate (“daughter” plate). There are 6 reps (“daughter” plates) created per master. The created daughter plates are then immediately infested with YFM larvae.
The day before plates are to be treated, mosquito eggs are placed in Millipore water containing liver powder to begin hatching (4 g. into 400 mL). After the daughter plates are created using the robot, they are infested with 220 μL of the liver powder/larval mosquito mixture (about 1 day-old larvae). After plates are infested with mosquito larvae, a non-evaporative lid is used to cover the plate to reduce drying. Plates are held at room temperature for 3 days prior to grading. After 3 days, each well is observed and scored based on mortality. The results are indicated in the table entitled “Table ABC: Biological Results” (See Table Section).

[3] = test system: Cabbage Looper (Trichoplusia ni, TRIPNI); assay: Bioassay on Cabbage Looper (CL), 128-well diet tray assay; conditions: 168 h, 50 μg/cm^2 on artificial diet, second instar larvae, five to seven days, 25° C., read-out: CL % Control (or Mortality) rating
Outline: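 Diet-tray assay: 1–5 second-instar larvae per well on artificial diet surface-treated with 50 μg/cm^2 compound (90:10 acetone-water, dried), eight wells per compound. Held at 25° C., 14:10 light-dark for five to seven days; percent mortality per well averaged across the eight wells.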

`C[C@H](CS(=O)(=O)CC(F)(F)F)NC(=O)c1ccc(/C(F)=C/C(c2ccc(Br)c(Cl)c2)C(F)(F)F)cc1C(F)(F)F` (stereo partly drawn) [PF5, 4-((Z)-3-(4-Bromo-3-chlorophenyl)-1,4,4,4-tetrafluorobut-1-en-1-yl)-N—((R)-1-((2,2,2-trifluoroethyl)sulfonyl)propan-2-yl)-2-(trifluoromethyl)benzamide] was tested, and the mortality at 50 µg/cm2 [1] was 50 to 100%, the “YFM % Control (or Mortality) rating” value [2] was “B (More than 0-Less than 80)” and the mortality at 50 µg/cm2 [3] was 50 to 100%.
`C=Cc1c(Cl)cc(C(/C=C(\F)c2ccc(C(=O)N[C@H](C)CSCC(F)(F)F)c(C(F)(F)F)c2)C(F)(F)F)cc1Cl` (stereo partly drawn) [F32, 4-((Z)-3-(3,5-Dichloro-4-vinylphenyl)-1,4,4,4-tetrafluorobut-1-en-1-yl)-N—((R)-1-((2,2,2-trifluoroethyl)thio)propan-2-yl)-2-(trifluoromethyl)benzamide] was tested, and the mortality at 50 µg/cm2 [1] was 50 to 100%, the “YFM % Control (or Mortality) rating” value [2] was “A (80-100)” and the mortality at 50 µg/cm2 [3] was 50 to 100%.
In the case of `C=Cc1c(Cl)cc(C(/C=C(\F)c2ccc(C(=O)N[C@H](C)C[S+]([O-])CC(F)(F)F)c(C(F)(F)F)c2)C(F)(F)F)cc1Cl` (stereo partly drawn) [F34, 4-((Z)-3-(3,5-Dichloro-4-vinylphenyl)-1,4,4,4-tetrafluorobut-1-en-1-yl)-N-((2R)-1-((2,2,2-trifluoroethyl)sulfinyl)propan-2-yl)-2-(trifluoromethyl)benzamide], the mortality at 50 µg/cm2 [1] is reported as 50 to 100%, the “YFM % Control (or Mortality) rating” value [2] is reported as “A (80-100)” and the mortality at 50 µg/cm2 [3] is reported as 50 to 100%.
With `C[C@H](CS(=O)(=O)CC(F)(F)F)NC(=O)c1ccc(/C(F)=C/C(c2ccc(C(F)(F)F)c(Br)c2)C(F)(F)F)cc1C(F)(F)F` (stereo partly drawn) [F95, 4-((Z)-3-(3-Bromo-4-(trifluoromethyl)phenyl)-1,4,4,4-tetrafluorobut-1-en-1-yl)-N—((R)-1-((2,2,2-trifluoroethyl)sulfonyl)propan-2-yl)-2-(trifluoromethyl)benzamide] the mortality at 50 µg/cm2 [1] was 50 to 100%, the “YFM % Control (or Mortality) rating” value [2] was “A (80-100)” and the mortality at 50 µg/cm2 [3] was 50 to 100%.
With `CC[S+]([O-])C[C@@H](C)NC(=O)c1ccc(/C(F)=C/C(c2cc(C)c(Cl)c(C)c2)C(F)(F)F)cc1C(F)(F)F` (stereo partly drawn) [F44, 4-((Z)-3-(4-Chloro-3,5-dimethylphenyl)-1,4,4,4-tetrafluorobut-1-en-1-yl)-N-((2R)-1-(ethylsulfinyl)propan-2-yl)-2-(trifluoromethyl)benzamide] the mortality at 50 µg/cm2 [1] was 50 to 100%, the “YFM % Control (or Mortality) rating” value [2] was “A (80-100)” and the mortality at 50 µg/cm2 [3] was 50 to 100%.
In the case of `O=C(NCCS(=O)(=O)CC(F)(F)F)c1ccc(/C(F)=C/C(c2cc(Cl)c(Cl)c(Cl)c2)C(F)(F)F)cc1C(F)(F)F` (stereo not drawn) [F49, (Z)-4-(1,4,4,4-tetrafluoro-3-(3,4,5-trichlorophenyl)but-1-en-1-yl)-N-(2-((2,2,2-trifluoroethyl)sulfonyl)ethyl)-2-(trifluoromethyl)benzamide], the mortality at 50 µg/cm2 [1] is reported as 50 to 100%, the “YFM % Control (or Mortality) rating” value [2] is reported as “A (80-100)” and the mortality at 50 µg/cm2 [3] is reported as 50 to 100%.
For `C[C@H](C[S+]([O-])CC(F)(F)F)NC(=O)c1ccc(/C(F)=C/C(c2cc(Br)cc(Br)c2)C(F)(F)F)cc1C(F)(F)F` (stereo partly drawn) [F31, 4-((Z)-3-(3,5-Dibromophenyl)-1,4,4,4-tetrafluorobut-1-en-1-yl)-N-((2R)-1-((2,2,2-trifluoroethyl)sulfinyl)propan-2-yl)-2-(trifluoromethyl)benzamide], the mortality at 50 µg/cm2 [1] was 50 to 100%, the “YFM % Control (or Mortality) rating” value [2] was “B (More than 0-Less than 80)” and the mortality at 50 µg/cm2 [3] was 50 to 100%.
With `C=Cc1c(Cl)cc(C(/C=C(\F)c2ccc(C(=O)N[C@H](C)CS(=O)(=O)CC(F)(F)F)c(C(F)(F)F)c2)C(F)(F)F)cc1Cl` (stereo partly drawn) [F33, 4-((Z)-3-(3,5-Dichloro-4-vinylphenyl)-1,4,4,4-tetrafluorobut-1-en-1-yl)-N—((R)-1-((2,2,2-trifluoroethyl)sulfonyl)propan-2-yl)-2-(trifluoromethyl)benzamide] the mortality at 50 µg/cm2 [1] was 50 to 100%, the “YFM % Control (or Mortality) rating” value [2] was “A (80-100)” and the mortality at 50 µg/cm2 [3] was 50 to 100%.
For `CCS(=O)(=O)C[C@@H](C)NC(=O)c1ccc(/C(F)=C/C(c2cc(Cl)cc(Cl)c2)C(F)(F)F)cc1C(F)(F)F` (stereo partly drawn) [F45, 4-((Z)-3-(3,5-Dichlorophenyl)-1,4,4,4-tetrafluorobut-1-en-1-yl)-N—((R)-1-(ethylsulfonyl)propan-2-yl)-2-(trifluoromethyl)benzamide], the mortality at 50 µg/cm2 [1] was 50 to 100%, the “YFM % Control (or Mortality) rating” value [2] was “A (80-100)” and the mortality at 50 µg/cm2 [3] was 50 to 100%.
With `COc1ccc(C(/C=C(\F)c2ccc(C(=O)N[C@H](C)CS(=O)(=O)CC(F)(F)F)c(C(F)(F)F)c2)C(F)(F)F)cc1Cl` (stereo partly drawn) [F142, 4-((Z)-3-(3-Chloro-4-methoxyphenyl)-1,4,4,4-tetrafluorobut-1-en-1-yl)-N—((R)-1-((2,2,2-trifluoroethyl)sulfonyl)propan-2-yl)-2-(trifluoromethyl)benzamide] the mortality at 50 µg/cm2 [1] was 50 to 100%, the “YFM % Control (or Mortality) rating” value [2] was “B (More than 0-Less than 80)” and the mortality at 50 µg/cm2 [3] was 50 to 100%.
`CCc1ccc(C(/C=C(\F)c2ccc(C(=O)N[C@H](C)CS(=O)(=O)CC(F)(F)F)c(C(F)(F)F)c2)C(F)(F)F)cc1Cl` (stereo partly drawn) [F141, 4-((Z)-3-(3-Chloro-4-ethylphenyl)-1,4,4,4-tetrafluorobut-1-en-1-yl)-N—((R)-1-((2,2,2-trifluoroethyl)sulfonyl)propan-2-yl)-2-(trifluoromethyl)benzamide] was tested, and the mortality at 50 µg/cm2 [1] was 50 to 100%, the “YFM % Control (or Mortality) rating” value [2] was “D (No activity noticed in this bioassay)” and the mortality at 50 µg/cm2 [3] was 50 to 100%.
`C[C@H](CS(=O)(=O)CC(F)(F)F)NC(=O)c1ccc(/C(F)=C/C(c2cc(Cl)c(F)c(Cl)c2)C(F)(F)F)cc1C(F)(F)F` (stereo partly drawn) [F29, 4-((Z)-3-(3,5-Dichloro-4-fluorophenyl)-1,4,4,4-tetrafluorobut-1-en-1-yl)-N—((R)-1-((2,2,2-trifluoroethyl)sulfonyl)propan-2-yl)-2-(trifluoromethyl)benzamide] was tested, and the mortality at 50 µg/cm2 [1] was 50 to 100%, the “YFM % Control (or Mortality) rating” value [2] was “A (80-100)” and the mortality at 50 µg/cm2 [3] was 50 to 100%.
With `C[C@H](C[S+]([O-])CCC(F)(F)F)NC(=O)c1ccc(/C(F)=C/C(c2cc(Cl)c(Cl)c(Cl)c2)C(F)(F)F)cc1C(F)(F)F` (stereo partly drawn) [F121, 4-((Z)-1,4,4,4-Tetrafluoro-3-(3,4,5-trichlorophenyl)but-1-en-1-yl)-2-(trifluoromethyl)-N-((2R)-1-((3,3,3-trifluoropropyl)sulfinyl)propan-2-yl)benzamide] the mortality at 50 µg/cm2 [1] was 50 to 100%, the “YFM % Control (or Mortality) rating” value [2] was “A (80-100)” and the mortality at 50 µg/cm2 [3] was 50 to 100%.
In the case of `C=Cc1c(Cl)cc(C(/C=C(\F)c2ccc(C(=O)N[C@H](C)CS(=O)(=O)CC)c(C(F)(F)F)c2)C(F)(F)F)cc1Cl` (stereo partly drawn) [F119, 4-((Z)-3-(3,5-Dichloro-4-vinylphenyl)-1,4,4,4-tetrafluorobut-1-en-1-yl)-N—((R)-1-(ethylsulfonyl)propan-2-yl)-2-(trifluoromethyl)benzamide], the mortality at 50 µg/cm2 [1] is reported as 50 to 100%, the “YFM % Control (or Mortality) rating” value [2] is reported as “A (80-100)” and the mortality at 50 µg/cm2 [3] is reported as 50 to 100%.
With `Cc1cc(C(/C=C(\F)c2ccc(C(=O)N[C@H](C)CSCC(F)(F)F)c(C(F)(F)F)c2)C(F)(F)F)cc(C)c1Cl` (stereo partly drawn) [F52, 4-((Z)-3-(4-Chloro-3,5-dimethylphenyl)-1,4,4,4-tetrafluorobut-1-en-1-yl)-N—((R)-1-((2,2,2-trifluoroethyl)thio)propan-2-yl)-2-(trifluoromethyl)benzamide] the mortality at 50 µg/cm2 [1] was 50 to 100%, the “YFM % Control (or Mortality) rating” value [2] was “D (No activity noticed in this bioassay)” and the mortality at 50 µg/cm2 [3] was 50 to 100%.
For `CCS(=O)(=O)C[C@@H](C)NC(=O)c1ccc(/C(F)=C/C(c2cc(Br)c(Cl)c(Br)c2)C(F)(F)F)cc1C(F)(F)F` (stereo partly drawn) [F55, 4-((Z)-3-(3,5-Dibromo-4-chlorophenyl)-1,4,4,4-tetrafluorobut-1-en-1-yl)-N—((R)-1-(ethylsulfonyl)propan-2-yl)-2-(trifluoromethyl)benzamide], the mortality at 50 µg/cm2 [1] was 50 to 100%, the “YFM % Control (or Mortality) rating” value [2] was “A (80-100)” and the mortality at 50 µg/cm2 [3] was 50 to 100%.
`C[C@H](CS(=O)(=O)CC(F)(F)F)NC(=O)c1ccc(/C(F)=C/C(c2cc(Cl)cc(Cl)c2)C(F)(F)F)cc1C(F)(F)F` (stereo partly drawn) [F17, 4-((Z)-3-(3,5-dichlorophenyl)-1,4,4,4-tetrafluorobut-1-en-1-yl)-N—((R)-1-((2,2,2-trifluoroethyl)sulfonyl)propan-2-yl)-2-(trifluoromethyl)benzamide] was tested, and the mortality at 50 µg/cm2 [1] was 50 to 100%, the “YFM % Control (or Mortality) rating” value [2] was “A (80-100)” and the mortality at 50 µg/cm2 [3] was 50 to 100%.
